Our source for the IC50, solubility and half-life values is patent publication US11292788B2, “IL-17 and IFN-gamma inhibition for the treatment of autoimmune diseases and chronic inflammation” (Immunic AG, priority 2017, dated 2022).

Series [1] has as its system IL-17A. Briefly: Cytokine assay: IL-17A production by human PBMC stimulated with PHA. It counts as cell-based. As to conditions: IC50 class, read-out: IL-17A Inhib. In outline:
(§1)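 Healthy-donor PBMC, isolated on Histopaque-1077, were seeded at 1×10^5 cells/well in RPMI1640 with 10% dialyzed heat-inactivated FCS, activated with 2 μg/ml PHA and incubated with compound for 48 hours. Supernatant cytokine was measured by Luminex BioPlex or ELISA. IC50 came from semilogarithmic titration; screening used 10, 1, 0.1 and 0.01 μM.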

For series [2], the system named is IL-17F. The experiment in a line: Cytokine assay: IL-17F production by human PBMC stimulated with PHA. The format is cell-based. The settings on record: IC50 class, read-out: IL-17F Inhib. In outline:
as §1

Series [3] concerns INF-γ. Briefly: Cytokine assay: INF-γ production by human PBMC stimulated with PHA. It counts as cell-based. The settings on record: IC50 class, read-out: IFN-gamma Inhib. In a few lines: as §1
Series [4] in a line: Aqueous solubility in 50 mM phosphate buffer (HPLC/DAD). The format is physicochemical. As to conditions: 50 mM phosphate buffer, 23 °C, pH 7.4, aqueous buffer, kinetic from dmso stock, aqueous solubility class; read-out: aq. solub. On the procedure:
To achieve this, the samples (final volume 500 μl, 200 μM compound concentration) were incubated for 24 hours at 23° C. under continuous shaking at 1400 rpm (Thermomixer, Eppendorf) in aqueous phosphate buffers (pH 4.0, 6.0, 7.4 and 9.0) with a final DMSO concentration of 1%. To separate the undissolved compound from the solution, the samples were centrifuged (30 min 18000 g at 23° C.). Supernatants were measured via HPLC equipped with a UV detector and concentrations were calculated according to signals of a standard curve. The standard curve was prepared by diluting a stock solution of each compound (c=0.1 mg/ml; received by adding 10 μl of 20 mM compound in DMSO to 914 μl MeCN) in a certain amount of MeCN to cover a range of 0.1 to 200 μg/ml.

Series [5] can be described thus: Microsomal stability: incubation with human liver microsomes, residual parent compound by HPLC-MS/MS. It counts as in vitro ADME. As to conditions: up to 60 min, read-out: t1/2 hLM. In a few lines:
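Compound at 1 μM final with 0.5 mg/ml pooled human liver microsomes and NADPH regenerating system, 0.1 M potassium phosphate pH 7.4, 0.4% DMSO, 37° C, sampled up to 60 min. Residual parent measured by HPLC-MS/MS; half-life and clearance from slope of remaining % of T0.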
On the technique in general: Liver microsomes are a subcellular fraction often used to study metabolism.

The mark [6] stands for this setting: human liver microsomes 0.5 mg/ml, compound 1 μM, pH 7.4, 37° C.
Where [7] appears, read: pH 7.4, human liver microsomes, 1 μM compound, 0.5 mg/ml HLM, 37° C.

≈ marks a conversion by molar mass, not a printed value. Where two headings read alike, the source gives them in different places.

In the case of `C[C@]1(O)C[C@H](n2ncc(-c3onc(-c4ccccc4Cl)c3C(=O)OC3CC3)c2C(F)(F)F)C1` [Example 49, cyclopropyl 3-(2-chlorophenyl)-5-(1-(3-hydroxy-3-methylcyclobutyl)-5-(trifluoromethyl)-1H-pyrazol-4-yl)isoxazole-4-carboxylate], the IC50 in series [1], in series [2] and in series [3] was under 50 nM each time. The solubility at 24 h in series [4] lay within 1 to 2.99 µM (≈ 0.482 to 1.44 µg/mL). In addition, the half-life at 1 μM in series [5] (setting [6]) is over 100 min.

As to `CC(C)(O)Cn1ncc(-c2onc(-c3c(F)cccc3Cl)c2C(=O)OC2CCC2)c1C(F)(F)F` [Example 56, cyclobutyl 3-(2-chloro-6-fluorophenyl)-5-[1-(2-hydroxy-2-methylpropyl)-5-(trifluoromethyl)-1H-pyrazol-4-yl]-1,2-oxazole-4-carboxylate], the IC50 was under 50 nM in series [1] (Homo sapiens, PBMC); under 50 nM in series [2] (Homo sapiens, PBMC); under 50 nM in series [3] (Homo sapiens, PBMC). Also, the solubility at 24 h in series [4] was in the range of 1 to 2.99 µM (≈ 0.502 to 1.5 µg/mL). Also, the half-life at 1 μM in series [5] (setting [6]) was in the range of 2 to 9.99 min.

In the case of `C[C@H](O)Cn1ncc(-c2onc(-c3c(F)cccc3Cl)c2C(=O)OC2CC2)c1C(F)(F)F` [Example 59, cyclopropyl 3-(2-chloro-6-fluorophenyl)-5-{1-[(2S)-2-hydroxypropyl]-5-(trifluoromethyl)-1H-pyrazol-4-yl}-1,2-oxazole-4-carboxylate], the IC50 in series [1] (Homo sapiens, PBMC) was under 50 nM; in series [2] (Homo sapiens, PBMC), under 50 nM; in series [3] (Homo sapiens, PBMC) it was under 50 nM. The solubility at 24 h in series [4] was over 10 µM. The half-life at 1 μM in series [5] (setting [6]) fell in the range of 10 to 40 min.

Regarding `C[C@H](O)Cn1ncc(-c2onc(-c3c(F)cccc3Cl)c2C(=O)OC2COC2)c1C(F)(F)F` [Example 60, oxetan-3-yl 3-(2-chloro-6-fluorophenyl)-5-{1-[(2S)-2-hydroxypropyl]-5-(trifluoromethyl)-1H-pyrazol-4-yl}-1,2-oxazole-4-carboxylate], the IC50 in series [1] (Homo sapiens, PBMC) was in the range of 50 to 500 nM; in series [2] (Homo sapiens, PBMC), 50 to 500 nM; in series [3] (Homo sapiens, PBMC), 50 to 500 nM. In addition, the solubility at 24 h in series [4] was over 10 µM. For the same molecule, the half-life at 1 μM in series [5] (setting [6]) lay within 10 to 40 min.

With `COCc1c(-c2c(F)cccc2Cl)noc1-c1cnn(CCC(C)(C)O)c1C(F)(F)F` [Example 67, 4-{4-[3-(2-chloro-6-fluorophenyl)-4-(methoxymethyl)-1,2-oxazol-5-yl]-5-(trifluoromethyl)-1H-pyrazol-1-yl}-2-methylbutan-2-ol], the IC50 is 50 to 500 nM in series [1] (Homo sapiens, PBMC); 50 to 500 nM in series [2] (Homo sapiens, PBMC); under 50 nM in series [3] (Homo sapiens, PBMC). In addition, in series [4], the solubility at 24 h is over 10 µM. Further, the half-life at 1 μM in series [5] (setting [6]) was over 100 min.

Take `CCOCc1c(-c2c(F)cccc2Cl)noc1-c1cnn(C[C@@H](C)O)c1C(F)(F)F` [Example 76, (2R)-1-{4-[3-(2-chloro-6-fluorophenyl)-4-(ethoxymethyl)-1,2-oxazol-5-yl]-5-(trifluoromethyl)-1H-pyrazol-1-yl}propan-2-ol]: the IC50 was 50 to 500 nM in series [1] (Homo sapiens, PBMC); 50 to 500 nM in series [2] (Homo sapiens, PBMC); under 50 nM in series [3] (Homo sapiens, PBMC). Further, in series [4], the solubility at 24 h is over 10 µM. Moreover, the half-life at 1 μM in series [5] (setting [6]) lay in the range of 10 to 40 min.

For `CC(C)(O)CCn1ncc(-c2onc(-c3c(F)cccc3Cl)c2COC2CC2)c1C(F)(F)F` [Example 77, 4-{4-[3-(2-chloro-6-fluorophenyl)-4-(cyclopropoxymethyl)-1,2-oxazol-5-yl]-5-(trifluoromethyl)-1H-pyrazol-1-yl}-2-methylbutan-2-ol], the IC50 was under 50 nM in series [1] (Homo sapiens, PBMC); under 50 nM in series [2] (Homo sapiens, PBMC); under 50 nM in series [3] (Homo sapiens, PBMC). The solubility at 24 h in series [4] is 3 to 9.99 µM (≈ 1.46 to 4.87 µg/mL). In addition, in series [5] (setting [6]), the half-life at 1 μM was over 100 min.

Take `CC(C)(O)CCn1ncc(-c2onc(-c3ccccc3Cl)c2COC2CC2)c1C(F)(F)F` [Example 78, 4-{4-[3-(2-chlorophenyl)-4-(cyclopropoxymethyl)-1,2-oxazol-5-yl]-5-(trifluoromethyl)-1H-pyrazol-1-yl}-2-methylbutan-2-ol]: the IC50 was 50 to 500 nM in series [1] (Homo sapiens, PBMC); under 50 nM in series [2] (Homo sapiens, PBMC); under 50 nM in series [3] (Homo sapiens, PBMC). For the same molecule, in series [4], the solubility at 24 h is over 10 µM. The half-life at 1 μM in series [5] (setting [6]) was in the range of 40 to 100 min.

Consider `Cc1c(-c2onc(-c3c(F)cccc3Cl)c2COC2CC2)cnn1CCC(C)(C)O` [Example 82, 4-{4-[3-(2-chloro-6-fluorophenyl)-4-(cyclopropoxymethyl)-1,2-oxazol-5-yl]-5-methyl-1H-pyrazol-1-yl}-2-methylbutan-2-ol], for which the IC50 in series [1] (Homo sapiens, PBMC) is under 50 nM; in series [2] (Homo sapiens, PBMC) it was under 50 nM; in series [3] (Homo sapiens, PBMC) it was under 50 nM. Besides, the solubility at 24 h in series [4] was over 10 µM. In addition, in series [5] (setting [6]), the half-life at 1 μM is over 100 min.

Turning to `Cc1c(-c2onc(-c3c(F)cccc3Cl)c2COC2CC2)cnn1[C@H]1C[C@@](C)(O)C1` [Example 83, 3-{4-[3-(2-chloro-6-fluorophenyl)-4-(cyclopropoxymethyl)-1,2-oxazol-5-yl]-5-methyl-1H-pyrazol-1-yl}-1-methylcyclobutan-1-ol], the IC50 in series [1] (Homo sapiens, PBMC) was under 50 nM; in series [2] (Homo sapiens, PBMC), under 50 nM; in series [3] (Homo sapiens, PBMC), under 50 nM. In addition, the solubility at 24 h in series [4] fell in the range of 1 to 2.99 µM (≈ 0.432 to 1.29 µg/mL). Moreover, the half-life at 1 μM in series [5] (setting [6]) is 40 to 100 min.

In the case of `C[C@]1(O)C[C@@H](n2ncc(-c3onc(-c4ccccc4Cl)c3COC3CC3)c2C(F)(F)F)C1` [Example 87, 3-{4-[3-(2-chlorophenyl)-4-(cyclopropoxymethyl)-1,2-oxazol-5-yl]-5-(trifluoromethyl)-1H-pyrazol-1-yl}-1-methylcyclobutan-1-ol], the IC50 in series [1] (Homo sapiens, PBMC) is 50 to 500 nM; in series [2] (Homo sapiens, PBMC) it was under 50 nM; in series [3] (Homo sapiens, PBMC), under 50 nM. In addition, the solubility at 24 h in series [4] was over 10 µM. For the same molecule, the half-life at 1 μM in series [5] (setting [6]) is over 100 min.

In the case of `CC(C)OCc1c(-c2c(F)cccc2Cl)noc1-c1cnn(C[C@@H](C)O)c1C(F)(F)F` [Example 89, (2R)-1-{4-[3-(2-chloro-6-fluorophenyl)-4-[(propan-2-yloxy)methyl]-1,2-oxazol-5-yl]-5-(trifluoromethyl)-1H-pyrazol-1-yl}propan-2-ol], the IC50 was under 50 nM in series [1] (Homo sapiens, PBMC); under 50 nM in series [2] (Homo sapiens, PBMC); under 50 nM in series [3] (Homo sapiens, PBMC). In series [4], the solubility at 24 h was over 10 µM. The half-life at 1 μM in series [5] (setting [6]) is 2 to 9.99 min.

On to `C[C@@H](O)Cn1ncc(-c2onc(-c3c(F)cccc3Cl)c2COC2CCC2)c1C(F)(F)F` [Example 90, (2R)-1-(4-(3-(2-chloro-6-fluorophenyl)-4-(cyclobutoxymethyl)isoxazol-5-yl)-5-(trifluoromethyl)-1H-pyrazol-1-yl)propan-2-ol], for which the IC50 in series [1] (Homo sapiens, PBMC) is under 50 nM; in series [2] (Homo sapiens, PBMC), under 50 nM; in series [3] (Homo sapiens, PBMC), under 50 nM. Besides, the solubility at 24 h in series [4] was over 10 µM. Moreover, the half-life at 1 μM in series [5] (setting [6]) was in the range of 2 to 9.99 min.

`Cc1c(-c2onc(-c3ccccc3Cl)c2-c2ncccn2)cnn1[C@H]1C[C@@](C)(O)C1` [Example 99, 3-(4-(3-(2-chlorophenyl)-4-(pyrimidin-2-yl)isoxazol-5-yl)-5-methyl-1H-pyrazol-1-yl)-1-methylcyclobutan-1-ol]: the IC50 in series [1] (Homo sapiens, PBMC) is 50 to 500 nM; in series [2] (Homo sapiens, PBMC) it was under 50 nM; in series [3] (Homo sapiens, PBMC), under 50 nM. In addition, the solubility at 24 h in series [4] was over 10 µM. Further, the half-life at 1 μM in series [5] (setting [7]) is over 100 min.

Regarding `C[C@]1(O)C[C@@H](n2ncc(-c3onc(-c4ccccc4Cl)c3-c3cnccn3)c2C(F)(F)F)C1` [Example 101, 3-{4-[3-(2-chlorophenyl)-4-(pyrazin-2-yl)-1,2-oxazol-5-yl]-5-(trifluoromethyl)-1H-pyrazol-1-yl}-1-methylcyclobutan-1-ol], the IC50 was 500 to 5000 nM in series [1] (Homo sapiens, PBMC); at least 5000 nM in series [2] (Homo sapiens, PBMC); at least 5000 nM in series [3] (Homo sapiens, PBMC). The solubility at 24 h in series [4] lay in the range of 1 to 2.99 µM (≈ 0.476 to 1.42 µg/mL). Besides, the half-life at 1 μM in series [5] (setting [7]) was over 100 min.

On to `C[C@]1(O)C[C@@H](n2ncc(-c3onc(-c4ccccc4Cl)c3-c3ncccn3)c2C(F)(F)F)C1` [Example 102, 3-{4-[3-(2-chlorophenyl)-4-(pyrimidin-2-yl)-1,2-oxazol-5-yl]-5-(trifluoromethyl)-1H-pyrazol-1-yl}-1-methylcyclobutan-1-ol], for which the IC50 in series [1] (Homo sapiens, PBMC) is under 50 nM; in series [2] (Homo sapiens, PBMC) it was under 50 nM; in series [3] (Homo sapiens, PBMC) it was under 50 nM. In addition, the solubility at 24 h in series [4] was over 10 µM. The half-life at 1 μM in series [5] (setting [7]) is over 100 min.

On to `C[C@]1(O)C[C@@H](n2ncc(-c3onc(-c4c(F)cccc4Cl)c3-c3ccncn3)c2C(F)(F)F)C1` [Example 104, 3-{4-[3-(2-chloro-6-fluorophenyl)-4-(pyrimidin-4-yl)-1,2-oxazol-5-yl]-5-(trifluoromethyl)-1H-pyrazol-1-yl}-1-methylcyclobutan-1-ol], for which the IC50 was under 50 nM in series [1]; under 50 nM in series [2] (Homo sapiens, PBMC); under 50 nM in series [3] (Homo sapiens, PBMC). The solubility at 24 h in series [4] fell in the range of 1 to 2.99 µM (≈ 0.494 to 1.48 µg/mL). For the same molecule, in series [5] (setting [7]), the half-life at 1 μM was over 100 min.
